Earlier results as cited in patent US7674824B2, “Stable oxaliplatin formulation” (Fresenius Kabi Oncology Limited, priority 2006, dated 2010).

Details: 0.9% sodium chloride solution

## O=C1[O][Pt]2([NH][C@@H]3CCCC[C@H]3[NH]2)[O]C1=O [oxaliplatin]
  Stability after reconstitution in chloride-containing solution (in words): rapidly decomposing
